Patent US20250326749A1, “COMPOUNDS, COMPOSITIONS, AND METHODS OF USING THEREOF” (Sionna Therapeutics Inc., priority 2022, published 2025)

Biological target: T1, ΔF508-CFTR (Homo sapiens, UniProt P13569, DEL508-508)
T1 construct: expressed in transfected cells; host or cells: CFSMEo- (human CF submucosal gland epithelial cells, ΔF508/Q2X), transiently transfected by nucleofection
Test: ΔF508-CFTR-HRP trafficking assay (cell surface expression of ΔF508-CFTR)
Format: cell-based
Details: CFSMEo- cells transiently transfected with ΔF508-CFTR-HRP; test agent 3 μM, 48 h; HRP chemiluminescence
Procedure, shortened: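 Surface-expressed ΔF508-CFTR measured via extracellular HRP tag: cell-impermeable chemiluminescent substrate, 5 min, signal normalized to 0.3% DMSO vehicle.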

T1 sequence (P13569 with tags, fused parts or gaps DEL508-508): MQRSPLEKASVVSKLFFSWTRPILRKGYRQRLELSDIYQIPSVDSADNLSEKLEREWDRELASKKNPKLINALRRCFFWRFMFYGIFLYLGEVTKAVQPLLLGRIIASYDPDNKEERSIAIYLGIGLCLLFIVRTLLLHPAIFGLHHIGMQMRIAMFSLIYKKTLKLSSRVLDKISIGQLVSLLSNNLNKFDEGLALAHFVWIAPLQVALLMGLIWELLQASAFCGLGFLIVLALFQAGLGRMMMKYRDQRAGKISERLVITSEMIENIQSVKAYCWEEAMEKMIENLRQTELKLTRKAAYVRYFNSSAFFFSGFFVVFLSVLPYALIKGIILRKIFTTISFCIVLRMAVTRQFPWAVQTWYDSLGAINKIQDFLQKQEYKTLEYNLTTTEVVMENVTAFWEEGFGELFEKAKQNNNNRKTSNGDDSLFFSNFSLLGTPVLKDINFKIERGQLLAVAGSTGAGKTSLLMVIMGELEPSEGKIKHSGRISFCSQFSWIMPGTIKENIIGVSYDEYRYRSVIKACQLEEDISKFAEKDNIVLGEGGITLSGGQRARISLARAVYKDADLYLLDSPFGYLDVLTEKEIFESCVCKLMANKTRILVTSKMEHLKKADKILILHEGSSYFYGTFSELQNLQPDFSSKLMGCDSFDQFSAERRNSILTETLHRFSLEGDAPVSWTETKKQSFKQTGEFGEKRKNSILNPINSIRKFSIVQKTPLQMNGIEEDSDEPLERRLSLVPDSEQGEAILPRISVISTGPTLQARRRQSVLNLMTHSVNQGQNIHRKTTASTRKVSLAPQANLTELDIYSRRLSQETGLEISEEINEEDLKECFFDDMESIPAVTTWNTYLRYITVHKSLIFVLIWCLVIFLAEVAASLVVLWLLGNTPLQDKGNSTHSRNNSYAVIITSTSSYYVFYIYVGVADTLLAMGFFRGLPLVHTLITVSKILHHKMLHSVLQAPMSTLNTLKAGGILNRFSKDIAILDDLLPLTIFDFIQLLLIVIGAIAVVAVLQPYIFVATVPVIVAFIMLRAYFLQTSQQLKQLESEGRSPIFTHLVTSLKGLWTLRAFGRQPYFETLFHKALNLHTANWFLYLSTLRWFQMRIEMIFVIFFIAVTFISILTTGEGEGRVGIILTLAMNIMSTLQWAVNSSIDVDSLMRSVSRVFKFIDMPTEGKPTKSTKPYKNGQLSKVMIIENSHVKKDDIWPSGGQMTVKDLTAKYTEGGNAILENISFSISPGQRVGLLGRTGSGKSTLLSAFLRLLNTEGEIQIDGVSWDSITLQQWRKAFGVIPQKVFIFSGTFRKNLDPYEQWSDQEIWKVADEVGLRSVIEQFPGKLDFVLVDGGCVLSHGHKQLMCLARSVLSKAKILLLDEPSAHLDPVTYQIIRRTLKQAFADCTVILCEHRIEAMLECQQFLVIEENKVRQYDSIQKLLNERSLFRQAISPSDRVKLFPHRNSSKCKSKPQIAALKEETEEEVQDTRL

Row | RLUs: ΔF508-CFTR-HRP trafficking data normalized to the vehicle treated control (0.3% DMSO) | Compound
1 | B (RLU 3.5 μM-5.0 μM) | C[C@H](Oc1cnnc(-n2nc(C(F)(F)F)c3c2[C@@H](Oc2ccc(C(=O)O)cc2)CCC3)c1)c1ccc2c(c1)OC(F)(F)O2 (single isomer, unassigned) [Example 36h]
2 | A (RLU 5.0 μM-10 μM) | C[C@H](Oc1cc(-n2nc(C(F)(F)F)c3c2[C@@H](Oc2ccc(C(=O)O)cc2)CCC3)ncc1F)c1ccc2c(c1)OC(F)(F)O2 (single isomer, unassigned) [Example 36i]
3 | C (RLU 0.0 μM-3.5 μM) | C[C@H](Oc1cc(-n2nc(C(F)(F)F)c3c2[C@@H](Oc2ccc(C(=O)O)cc2)CCC3)ccc1F)c1cc2c(cc1F)OC(F)(F)O2 (single isomer, unassigned) [Example 36j]
4 | C (RLU 0.0 μM-3.5 μM) | CC[C@H](Oc1cc(-n2nc(C(F)(F)F)c3c2[C@@H](Oc2ccc(C(=O)O)cc2)CCC3)ccn1)c1ccc2c(c1)OC(F)(F)O2 (single isomer, unassigned) [Example 36k]
5 | A (RLU 5.0 μM-10 μM) | C[C@H](Oc1cccc(-n2nc(C(F)(F)F)c3c2[C@@H](Oc2ccc(C(=O)O)cc2)CCC3)n1)c1cc2c(cc1F)OC(F)(F)O2 (single isomer, unassigned) [Example 36l]
6 | A (RLU 5.0 μM-10 μM) | C[C@H](Oc1nc(-n2nc(C(F)(F)F)c3c2[C@@H](Oc2ccc(C(=O)O)cc2)CCC3)ccc1F)c1cc2c(cc1F)OC(F)(F)O2 (single isomer, unassigned) [Example 36m]
7 | A (RLU 5.0 μM-10 μM) | C[C@@H](Oc1cc(-n2nc(C(F)(F)F)c3c2C(O[C@H]2CC[C@H](C(=O)O)CC2)CCC3)ccn1)c1ccc2c(c1)OC(F)(F)O2 (single isomer, unassigned) [Example 43]
8 | A (RLU 5.0 μM-10 μM) | C[C@H](Oc1cc(-n2nc(C(F)(F)F)c3c2C(O[C@H]2CC[C@H](C(=O)O)CC2)CCC3)ccn1)c1ccc2c(c1)OC(F)(F)O2 (single isomer, unassigned) [Example 44]
9 | B (RLU 3.5 μM-5.0 μM) | C[C@@H](Oc1cc(-n2nc(C(F)(F)F)c3c2C(O[C@H]2CC[C@H](C(=O)O)CC2)CCC3)ccn1)c1cc2c(cn1)OC(F)(F)O2 (single isomer, unassigned) [Example 47]
10 | C (RLU 0.0 μM-3.5 μM) | C[C@H](Oc1cc(-n2nc(C(F)(F)F)c3c2C(O[C@H]2CC[C@H](C(=O)O)CC2)CCC3)ccn1)c1cc2c(cn1)OC(F)(F)O2 (single isomer, unassigned) [Example 48]
11 | C (RLU 0.0 μM-3.5 μM) | C[C@H](Oc1cc(-n2nc(C(F)(F)F)c3c2[C@@H](O[C@H]2CC[C@H](C(=O)O)CC2)CCC3)cnn1)c1ccc2c(c1)OC(F)(F)O2 (single isomer, unassigned) [Example 55]
12 | B (RLU 3.5 μM-5.0 μM) | C[C@H](Oc1cc(-n2nc(C(F)(F)F)c3c2[C@H](O[C@H]2CC[C@H](C(=O)O)CC2)CCC3)cnn1)c1ccc2c(c1)OC(F)(F)O2 (single isomer, unassigned) [Example 56]
13 | B (RLU 3.5 μM-5.0 μM) | C[C@H](Oc1cncc(-n2nc(C(F)(F)F)c3c2[C@@H](OC24CCC(C(=O)O)(CC2)CC4)CCC3)c1)c1ccc2c(c1)OC(F)(F)O2 (single isomer, unassigned) [Example 57]
14 | B (RLU 3.5 μM-5.0 μM) | C[C@H](Oc1cncc(-n2nc(C(F)(F)F)c3c2[C@H](OC24CCC(C(=O)O)(CC2)CC4)CCC3)c1)c1ccc2c(c1)OC(F)(F)O2 (single isomer, unassigned) [Example 58]
15 | C (RLU 0.0 μM-3.5 μM) | C[C@H](Oc1cc(-n2nc(C(F)(F)F)c3c2[C@@H](OC24CCC(C(=O)O)(CC2)CC4)CCC3)cnc1F)c1ccc2c(c1)OC(F)(F)O2 (single isomer, unassigned) [Example 59]
16 | C (RLU 0.0 μM-3.5 μM) | C[C@H](Oc1cc(-n2nc(C(F)(F)F)c3c2[C@H](OC24CCC(C(=O)O)(CC2)CC4)CCC3)cnc1F)c1ccc2c(c1)OC(F)(F)O2 (single isomer, unassigned) [Example 60]
17 | C (RLU 0.0 μM-3.5 μM) | C[C@H](Oc1cc(-n2nc(C(F)(F)F)c3c2[C@@H](Oc2ccc(C(=O)O)cc2)CCC3)cnn1)c1ccc2c(c1)OC(F)(F)O2 (single isomer, unassigned) [Example 61]
18 | C (RLU 0.0 μM-3.5 μM) | C[C@H](Oc1cc(-n2nc(C(F)(F)F)c3c2[C@@H](OC24CC(C(=O)O)(C2)C4)CCC3)cnn1)c1ccc2c(c1)OC(F)(F)O2 (single isomer, unassigned) [Example 62]
19 | B (RLU 3.5 μM-5.0 μM) | C[C@H](Oc1cc(-n2nc(C(F)(F)F)c3c2[C@H](OC24CC(C(=O)O)(C2)C4)CCC3)cnn1)c1ccc2c(c1)OC(F)(F)O2 (single isomer, unassigned) [Example 63]
20 | A (RLU 5.0 μM-10 μM) | C[C@H](Oc1cc(-n2nc(C(F)(F)F)c3c2[C@@H](OC24CCC(C(=O)O)(CC2)CC4)CCC3)ccn1)c1ccc2c(c1)OC(F)(F)O2 (single isomer, unassigned) [Example 64]
21 | C (RLU 0.0 μM-3.5 μM) | C[C@H](Oc1cc(-n2nc(C(F)(F)F)c3c2[C@H](OC24CCC(C(=O)O)(CC2)CC4)CCC3)ccn1)c1ccc2c(c1)OC(F)(F)O2 (single isomer, unassigned) [Example 65]
22 | A (RLU 5.0 μM-10 μM) | C[C@H](Oc1cncc(-n2nc(C(F)(F)F)c3c2[C@@H](O[C@H]2CC[C@H](C(=O)O)CC2)CCC3)c1)c1ccc2c(c1)OC(F)(F)O2 (single isomer, unassigned) [Example 66]
23 | A (RLU 5.0 μM-10 μM) | C[C@H](Oc1cncc(-n2nc(C(F)(F)F)c3c2[C@H](O[C@H]2CC[C@H](C(=O)O)CC2)CCC3)c1)c1ccc2c(c1)OC(F)(F)O2 (single isomer, unassigned) [Example 67]
24 | C (RLU 0.0 μM-3.5 μM) | C[C@H](Oc1cc(-n2nc(C(F)(F)F)c3c2[C@@H](Oc2ccc(C(=O)O)cc2)CCC3)cnc1F)c1ccc2c(c1)OC(F)(F)O2 (single isomer, unassigned) [Example 68]
25 | A (RLU 5.0 μM-10 μM) | C[C@H](Nc1cc(-n2nc(C(F)(F)F)c3c2[C@@H](Oc2ccc(C(=O)O)cc2)CCC3)ccn1)c1ccc2c(c1)OC(F)(F)O2 (single isomer, unassigned) [Example 87]

Row | Compound | RLUs: ΔF508-CFTR-HRP trafficking data normalized to the vehicle treated control (0.3% DMSO)
26 | C[C@H](Oc1cccc(-n2nc(C(F)(F)F)c3c2C(OC24CC(C(=O)O)(C2)C4)CCC3)c1)c1ccc2c(c1)OC(F)(F)O2 (single isomer, unassigned) [Example 42] | A (RLU 5.0 μM-10 μM)
